# System: PANC-1 complex spheroid growth, percent test/control
# Test: Anticancer human tumor PANC-1 cell line growth inhibition [Asc];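 also: spheroids exposed to agents for 7 days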;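 as to viability, T/C: percent viability relative to DMSO vehicle wells taken as 100%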
# Details: for IC50: curve of first compound; for viability, T/C: stronger effect = lower value
# How it was run: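 Tumor cells were grown as multicellular spheroids with stromal HUVEC and mesenchymal stem cells and treated singly or in combination. Concentrations fell in half-log steps from the clinical Cmax, or from 10 microM where none was known.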
smiles,measurement,setting,value
C=C(F)C(=O)N1CCN(c2nc(OCC3CCCN3C)nc3c2CCN(c2cccc4cccc(Cl)c24)C3)CC1CC#N (stereo unspecified) + CCN1C(C(=O)NC23CCC(C(=O)O)(CC2)CC3)C(c2cccc(Cl)c2F)C2(C(=O)Nc3cc(Cl)ccc32)C12CCCCC2,IC50,second compound 0.00949 µM,7.22 µM
same,IC50,second compound 0.03 µM,6.88 µM
same,IC50,second compound 0.0949 µM,6.94 µM
same,IC50,second compound 0.3 µM,7.25 µM
same,IC50,second compound 0.949 µM,7.02 µM
same,IC50,second compound 3 µM,7.78 µM
same,"viability, T/C","second compound 0.00949 µM, first compound 0.0316 µM",99%
same,"viability, T/C","second compound 0.00949 µM, first compound 0.1 µM",89.5%
same,"viability, T/C","second compound 0.00949 µM, first compound 0.316 µM",88.4%
same,"viability, T/C","second compound 0.00949 µM, first compound 1 µM",98.5%
same,"viability, T/C","second compound 0.00949 µM, first compound 3.16 µM",105%
same,"viability, T/C","second compound 0.00949 µM, first compound 10 µM",31.7%
same,"viability, T/C","second compound 0.03 µM, first compound 0.0316 µM",103%
same,"viability, T/C","second compound 0.03 µM, first compound 0.1 µM",96.7%
same,"viability, T/C","second compound 0.03 µM, first compound 0.316 µM",97%
same,"viability, T/C","second compound 0.03 µM, first compound 1 µM",97.7%
same,"viability, T/C","second compound 0.03 µM, first compound 3.16 µM",88%
same,"viability, T/C","second compound 0.03 µM, first compound 10 µM",31.6%
same,"viability, T/C","second compound 0.0949 µM, first compound 0.0316 µM",105%
same,"viability, T/C","second compound 0.0949 µM, first compound 0.1 µM",102%
same,"viability, T/C","second compound 0.0949 µM, first compound 0.316 µM",108%
same,"viability, T/C","second compound 0.0949 µM, first compound 1 µM",109%
same,"viability, T/C","second compound 0.0949 µM, first compound 3.16 µM",106%
same,"viability, T/C","second compound 0.0949 µM, first compound 10 µM",24.1%
same,"viability, T/C","second compound 0.3 µM, first compound 0.0316 µM",99.5%
same,"viability, T/C","second compound 0.3 µM, first compound 0.1 µM",93.1%
same,"viability, T/C","second compound 0.3 µM, first compound 0.316 µM",103%
same,"viability, T/C","second compound 0.3 µM, first compound 1 µM",108%
same,"viability, T/C","second compound 0.3 µM, first compound 3.16 µM",100%
same,"viability, T/C","second compound 0.3 µM, first compound 10 µM",30.5%
same,"viability, T/C","second compound 0.949 µM, first compound 0.0316 µM",117%
same,"viability, T/C","second compound 0.949 µM, first compound 0.1 µM",104%
same,"viability, T/C","second compound 0.949 µM, first compound 0.316 µM",114%
same,"viability, T/C","second compound 0.949 µM, first compound 1 µM",109%
same,"viability, T/C","second compound 0.949 µM, first compound 3.16 µM",97.1%
same,"viability, T/C","second compound 0.949 µM, first compound 10 µM",28.9%
same,"viability, T/C","second compound 3 µM, first compound 0.0316 µM",112%
same,"viability, T/C","second compound 3 µM, first compound 0.1 µM",108%
same,"viability, T/C","second compound 3 µM, first compound 0.316 µM",115%
same,"viability, T/C","second compound 3 µM, first compound 1 µM",126%
same,"viability, T/C","second compound 3 µM, first compound 3.16 µM",96.7%
same,"viability, T/C","second compound 3 µM, first compound 10 µM",37%
C=CC(=O)N1CCN(c2nc(=O)n(-c3c(C)ccnc3C(C)C)c3nc(-c4c(O)cccc4F)c(F)cc23)C(C)C1 (stereo unspecified) + CNC(C)C(=O)NC1CN(S(=O)(=O)c2cccc(S(=O)(=O)N3CCC4CCC(C(=O)NC(c5ccccc5)c5ccccc5)N4C(=O)C(NC(=O)C(C)NC)C3)c2)CCC2CCC(C(=O)NC(c3ccccc3)c3ccccc3)N2C1=O,IC50,second compound 0.00316 µM,> 10 µM
same,IC50,second compound 0.01 µM,> 10 µM
same,IC50,second compound 0.0316 µM,> 10 µM
same,IC50,second compound 0.1 µM,> 10 µM
same,IC50,second compound 0.316 µM,> 10 µM
same,IC50,second compound 1 µM,> 10 µM
same,"viability, T/C","second compound 0.00316 µM, first compound 0.0316 µM",103%
same,"viability, T/C","second compound 0.00316 µM, first compound 0.1 µM",88.3%
same,"viability, T/C","second compound 0.00316 µM, first compound 0.316 µM",103%
same,"viability, T/C","second compound 0.00316 µM, first compound 1 µM",92.3%
same,"viability, T/C","second compound 0.00316 µM, first compound 3.16 µM",118%
same,"viability, T/C","second compound 0.00316 µM, first compound 10 µM",97.5%
same,"viability, T/C","second compound 0.01 µM, first compound 0.0316 µM",100%
same,"viability, T/C","second compound 0.01 µM, first compound 0.1 µM",92.8%
same,"viability, T/C","second compound 0.01 µM, first compound 0.316 µM",102%
same,"viability, T/C","second compound 0.01 µM, first compound 1 µM",97%
same,"viability, T/C","second compound 0.01 µM, first compound 3.16 µM",101%
same,"viability, T/C","second compound 0.01 µM, first compound 10 µM",95%
same,"viability, T/C","second compound 0.0316 µM, first compound 0.0316 µM",91.2%
same,"viability, T/C","second compound 0.0316 µM, first compound 0.1 µM",94.1%
same,"viability, T/C","second compound 0.0316 µM, first compound 0.316 µM",102%
same,"viability, T/C","second compound 0.0316 µM, first compound 1 µM",95.8%
same,"viability, T/C","second compound 0.0316 µM, first compound 3.16 µM",105%
same,"viability, T/C","second compound 0.0316 µM, first compound 10 µM",93.3%
same,"viability, T/C","second compound 0.1 µM, first compound 0.0316 µM",102%
same,"viability, T/C","second compound 0.1 µM, first compound 0.1 µM",96.2%
same,"viability, T/C","second compound 0.1 µM, first compound 0.316 µM",100%
same,"viability, T/C","second compound 0.1 µM, first compound 1 µM",100%
same,"viability, T/C","second compound 0.1 µM, first compound 3.16 µM",89.7%
same,"viability, T/C","second compound 0.1 µM, first compound 10 µM",88.6%
same,"viability, T/C","second compound 0.316 µM, first compound 0.0316 µM",98.2%
same,"viability, T/C","second compound 0.316 µM, first compound 0.1 µM",92.3%
same,"viability, T/C","second compound 0.316 µM, first compound 0.316 µM",112%
same,"viability, T/C","second compound 0.316 µM, first compound 1 µM",96.4%
same,"viability, T/C","second compound 0.316 µM, first compound 3.16 µM",86.2%
same,"viability, T/C","second compound 0.316 µM, first compound 10 µM",94.2%
same,"viability, T/C","second compound 1 µM, first compound 0.0316 µM",94.7%
same,"viability, T/C","second compound 1 µM, first compound 0.1 µM",91.2%
same,"viability, T/C","second compound 1 µM, first compound 0.316 µM",109%
same,"viability, T/C","second compound 1 µM, first compound 1 µM",94.2%
same,"viability, T/C","second compound 1 µM, first compound 3.16 µM",97.1%
same,"viability, T/C","second compound 1 µM, first compound 10 µM",96.3%
NC(=O)C(=Cn1cnc(-c2cc(C(F)(F)F)cc(C(F)(F)F)c2)n1)c1cncnc1 + Cc1c(S(C)(=O)=O)c(-c2cc(F)cc(N3CCN(c4ccc(NS(=O)(=O)c5ccc(NC(CCN6CCC(C(=O)OCCCP(=O)(O)O)CC6)CSc6ccccc6)c(S(=O)(=O)C(F)(F)F)c5)cc4)CC3)c2)c(-c2ccc(Cl)cc2)n1C(C)C,IC50,second compound 0.0316 µM,> 0.3 µM
same,IC50,second compound 0.1 µM,> 0.3 µM
same,IC50,second compound 0.316 µM,> 0.3 µM
same,IC50,second compound 1 µM,> 0.3 µM
same,IC50,second compound 3.16 µM,> 0.3 µM
same,IC50,second compound 10 µM,> 0.3 µM
same,"viability, T/C","second compound 0.0316 µM, first compound 0.000949 µM",103%
same,"viability, T/C","second compound 0.0316 µM, first compound 0.003 µM",90.5%
same,"viability, T/C","second compound 0.0316 µM, first compound 0.00949 µM",93.7%
same,"viability, T/C","second compound 0.0316 µM, first compound 0.03 µM",91%
same,"viability, T/C","second compound 0.0316 µM, first compound 0.0949 µM",118%
same,"viability, T/C","second compound 0.0316 µM, first compound 0.3 µM",90.8%
same,"viability, T/C","second compound 0.1 µM, first compound 0.000949 µM",96.3%
same,"viability, T/C","second compound 0.1 µM, first compound 0.003 µM",102%
same,"viability, T/C","second compound 0.1 µM, first compound 0.00949 µM",97.4%
same,"viability, T/C","second compound 0.1 µM, first compound 0.03 µM",102%
same,"viability, T/C","second compound 0.1 µM, first compound 0.0949 µM",121%
same,"viability, T/C","second compound 0.1 µM, first compound 0.3 µM",84.3%
same,"viability, T/C","second compound 0.316 µM, first compound 0.000949 µM",105%
same,"viability, T/C","second compound 0.316 µM, first compound 0.003 µM",93.6%
same,"viability, T/C","second compound 0.316 µM, first compound 0.00949 µM",101%
same,"viability, T/C","second compound 0.316 µM, first compound 0.03 µM",98.5%
same,"viability, T/C","second compound 0.316 µM, first compound 0.0949 µM",122%
same,"viability, T/C","second compound 0.316 µM, first compound 0.3 µM",99.9%
same,"viability, T/C","second compound 1 µM, first compound 0.000949 µM",105%
same,"viability, T/C","second compound 1 µM, first compound 0.003 µM",101%
same,"viability, T/C","second compound 1 µM, first compound 0.00949 µM",97.7%
same,"viability, T/C","second compound 1 µM, first compound 0.03 µM",94%
same,"viability, T/C","second compound 1 µM, first compound 0.0949 µM",130%
same,"viability, T/C","second compound 1 µM, first compound 0.3 µM",84.5%
same,"viability, T/C","second compound 3.16 µM, first compound 0.000949 µM",108%
same,"viability, T/C","second compound 3.16 µM, first compound 0.003 µM",94.5%
same,"viability, T/C","second compound 3.16 µM, first compound 0.00949 µM",98.1%
same,"viability, T/C","second compound 3.16 µM, first compound 0.03 µM",104%
same,"viability, T/C","second compound 3.16 µM, first compound 0.0949 µM",120%
same,"viability, T/C","second compound 3.16 µM, first compound 0.3 µM",79.3%
same,"viability, T/C","second compound 10 µM, first compound 0.000949 µM",152%
same,"viability, T/C","second compound 10 µM, first compound 0.003 µM",192%
same,"viability, T/C","second compound 10 µM, first compound 0.00949 µM",181%
same,"viability, T/C","second compound 10 µM, first compound 0.03 µM",205%
same,"viability, T/C","second compound 10 µM, first compound 0.0949 µM",196%
same,"viability, T/C","second compound 10 µM, first compound 0.3 µM",86.7%

# From PubChem BioAssay AID1963435 (Molecular Pharmacology Branch, DTP, NCI, 2024)
